# In patent publication US4307114A, “Aldose reductase inhibition by (Z)-5-fluoro-2-methyl-1-[[4-(methylsulfinyl)phenyl]methylene]-1H-indene- 3-acetic acid” (Ayerst, McKenna & Harrison, Inc., priority 1980, dated 1981):
# Tests used:
# lens aldose reductase = biological target: T1, lens aldose reductase (Bos taurus, UniProt P16116); test: in vitro aldose reductase inhibition test (modified Hayman and Kinoshita procedure, enzyme from bovine lens); format: biochemical
# T1 construct: preparation of the enzyme from bovine lens; from tissue; host or cells: bovine lens
# Experimental: In the present case the procedure of Hayman and Kinoshita is modified in that the final chromatography step is omitted in the preparation of the enzyme from bovine lens.
# The following results were obtained when sulindac was evaluated in the above in vitro test: […]
# galactosaemic rats = test: dulcitol accumulation in lenses and sciatic nerves of galactosaemic rats; format: in vivo, rat; conditions: for Dulcitol Accumulation Sicatic Nerves Percent Decrease / Dulcitol Accumulation Lenses Percent Decrease / Dulcitol Accumulation Sicatic Nerves / Dulcitol Accumulation Lenses: four days
# Source text: The aldose reductase inhibiting property of sulindac and its utilization in diminishing and alleviating diabetic complications also are demonstrable in experiments using galactosaemic rats, see D. Dvornik et al., Science, 182, 1146 (1973). Such experiments are exemplified hereinbelow after the listing of the following general comments pertaining to these experiments:
# (a) Four or more groups of six male rats, 50-70 g, Sprague-Dawley strain, were used. The first group, the control group, was fed a mixture of laboratory chow (rodent laboratory chow, Purina) and glucose at 20% (w/w %) concentration. The untreated galactosaemic group was fed a similar diet in which galactose is substituted for glucose. The other groups were fed diets containing various amounts of sulindac in the galactose containing diet. The concentration of galactose in the diet of the treated groups was the same as that for the untreated galactosaemic group.
# (b) After four days, the animals were killed by decapitation. The eyeballs were removed and punctured with a razor blade; the freed lenses were rolled gently on filter paper and weighed. The sciatic nerves were dissected as completely as possible and weighed. Both tissues were frozen and kept up to two weeks before being analyzed for dulcitol.
# (c) The tissues were homoginized in 5% (w/v) trichloroacetic acid and the polyol determination on the extracts was performed by a modification of the procedure of M. Kraml and L. Cosyns, Clin. Biochem., 2, 373 (1969). Only two minor reagent changes were made: (a) The rinsing mixture was an aqueous 5% (w/v) trichloroacetic acid solution and (b) the stock solution was prepared by dissolving 25 mg of dulcitol in 100 ml of an aqueous trichloroacetic acid solution. [N.B.: For each experiment the average value found in the tissue from rats fed the glucose diet was substracted from the individual values found in the corresponding rat tissue to obtain the amount of polyol accumulated].
# [1] = Experiment 2, 62 mg/kg/day in diet, p < 0.01
smiles,measurement,setting,value
"CC1=C(CC(=O)O)c2cc(F)ccc2/C1=C\c1ccc([S+](C)[O-])cc1 (stereo not drawn) [Sulindac, (Z)-5-Fluoro-2-methyl-1-[[4-(methylsulfinyl)phenyl]methylene]-1H-indene-3-acetic acid]",inhibition of lens aldose reductase (in words),lens aldose reductase,potent inhibitor of lens aldose reductase
same,Percent Inhibition,lens aldose reductase; concentration 10^-5 Mole/l,88%
same,Percent Inhibition,lens aldose reductase; concentration 10^-6 Mole/l,60%
same,Percent Inhibition,lens aldose reductase; concentration 10^-7 Mole/l,18%
same,Dulcitol Accumulation Sicatic Nerves Percent Decrease,"galactosaemic rats; Experiment 1, 31 mg/kg/day in diet, p < 0.001",39%
same,Dulcitol Accumulation Lenses Percent Decrease,"galactosaemic rats; Experiment 1, 31 mg/kg/day in diet, t test N.S.",8%
same,Dulcitol Accumulation Sicatic Nerves,"galactosaemic rats; Experiment 1, 31 mg/kg/day in galactose diet, untreated 1.67 ± 0.08",1.02 ± 0.09 µg/mg
same,Dulcitol Accumulation Lenses,"galactosaemic rats; Experiment 1, 31 mg/kg/day in galactose diet, untreated 12.01 ± 0.38",11.10 ± 0.28 µg/mg
same,Dulcitol Accumulation Lenses Percent Decrease,"galactosaemic rats; Experiment 2, 25 mg/kg/day in diet, p < 0.01",14%
same,Dulcitol Accumulation Sicatic Nerves Percent Decrease,"galactosaemic rats; Experiment 2, 25 mg/kg/day in diet, t test N.S.",36%
same,Dulcitol Accumulation Sicatic Nerves,"galactosaemic rats; Experiment 2, 25 mg/kg/day in galactose diet, untreated 1.30 ± 0.14",0.83 ± 0.19 µg/mg
same,Dulcitol Accumulation Lenses,"galactosaemic rats; Experiment 2, 25 mg/kg/day in galactose diet, untreated 12.10 ± 0.30",10.46 ± 0.32 µg/mg
same,Dulcitol Accumulation Lenses Percent Decrease,"galactosaemic rats; Experiment 2, 47 mg/kg/day in diet, p < 0.01",12%
same,Dulcitol Accumulation Sicatic Nerves Percent Decrease,"galactosaemic rats; Experiment 2, 47 mg/kg/day in diet, p < 0.05",34%
same,Dulcitol Accumulation Sicatic Nerves,"galactosaemic rats; Experiment 2, 47 mg/kg/day in galactose diet, untreated 1.30 ± 0.14",0.85 ± 0.10 µg/mg
same,Dulcitol Accumulation Lenses,"galactosaemic rats; Experiment 2, 47 mg/kg/day in galactose diet, untreated 12.10 ± 0.30",10.71 ± 0.22 µg/mg
same,Dulcitol Accumulation Lenses Percent Decrease,galactosaemic rats; [1],17%
same,Dulcitol Accumulation Sicatic Nerves Percent Decrease,galactosaemic rats; [1],49%
same,Dulcitol Accumulation Sicatic Nerves,"galactosaemic rats; Experiment 2, 62 mg/kg/day in galactose diet, untreated 1.30 ± 0.14",0.67 ± 0.04 µg/mg
same,Dulcitol Accumulation Lenses,"galactosaemic rats; Experiment 2, 62 mg/kg/day in galactose diet, untreated 12.10 ± 0.30",10.06 ± 0.43 µg/mg
same,accumulation of dulcitol in the lenses and sciatic nerves of rats fed galactose (in words),galactosaemic rats; as compared to an untreated animal,diminishes and alleviates the accumulation of dulcitol
